What was measured:
Experiment in all cases: relative viability (nuclei count vs DMSO), 5 days (fraction); higher = more cells survive
NCI-H2347 = tested on: NCI-H2347
In short: (§1)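 The day after seeding in 1536-well plates, lung cancer cell lines were treated by pin tool with a single drug, or with a fixed anchor-drug dose together with five library-drug doses (not always all listed) in √10 steps. After 5 days, a combined fix-and-stain solution (final 0.05% Triton X-100, 1% formaldehyde, 1 ug/ml Hoechst) was added. Nuclei counted on 4× images gave relative viability as treated counts over vehicle counts, reported as the median of duplicate plates.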

EKVX = tested on: EKVX
In short: as §1

PC-3 [JPC-3] = tested on: PC-3 [JPC-3]
In short: as §1

LOU-NH91 = tested on: LOU-NH91
In short: as §1

NCI-H650 = tested on: NCI-H650
In short: as §1

NCI-H838 = tested on: NCI-H838
In short: as §1

SW 1573 = tested on: SW 1573
In short: as §1

LCLC-97TM1 = tested on: LCLC-97TM1
In short: as §1

LU99A = tested on: LU99A
In short: as §1

NCI-H1650 = tested on: NCI-H1650
In short: as §1

LC-2-ad = tested on: LC-2-ad
In short: as §1

NCI-H1915 = tested on: NCI-H1915
In short: as §1

NCI-H23 = tested on: NCI-H23
In short: as §1

RERF-LC-KJ = tested on: RERF-LC-KJ
In short: as §1

NCI-H1355 = tested on: NCI-H1355
In short: as §1

NCI-H1993 = tested on: NCI-H1993
In short: as §1

NCI-H1793 = tested on: NCI-H1793
In short: as §1

BEN = tested on: BEN
In short: as §1

NCI-H1666 = tested on: NCI-H1666
In short: as §1

NCI-H460 = tested on: NCI-H460
In short: as §1

A-427 = tested on: A-427
In short: as §1

NCI-H520 = tested on: NCI-H520
In short: as §1

NCI-H1648 = tested on: NCI-H1648
In short: as §1

NCI-H2228 = tested on: NCI-H2228
In short: as §1

CCCCCCCCCCCC1=C(O)C(=O)C=C(O)C1=O [Embelin] + Cc1cc(Nc2cc(N3CCN(C)CC3)nc(Sc3ccc(NC(=O)C4CC4)cc3)n2)n[nH]1 [Tozasertib] (partner 0.1 µM)
relative viability (NCI-H2347; first compound 0.08 µM): 0.608 | relative viability (NCI-H2347; first compound 0.8 µM): 0.465 | relative viability (NCI-H2347; first compound 2.53 µM): 0.575 | relative viability (NCI-H2347; first compound 8 µM): 0.612 | relative viability (EKVX; first compound 0.08 µM): 0.387 | relative viability (EKVX; first compound 0.8 µM): 0.381 | relative viability (EKVX; first compound 2.53 µM): 0.412 | relative viability (EKVX; first compound 8 µM): 0.417 | relative viability (PC-3 [JPC-3]; first compound 0.08 µM): 0.843 | relative viability (PC-3 [JPC-3]; first compound 0.8 µM): 0.944 | relative viability (PC-3 [JPC-3]; first compound 2.53 µM): 0.927 | relative viability (PC-3 [JPC-3]; first compound 8 µM): 0.991 | relative viability (LOU-NH91; first compound 0.08 µM): 0.751 | relative viability (LOU-NH91; first compound 0.8 µM): 0.827 | relative viability (LOU-NH91; first compound 2.53 µM): 0.749 | relative viability (LOU-NH91; first compound 8 µM): 0.808 | relative viability (NCI-H650; first compound 0.08 µM): 0.823 | relative viability (NCI-H650; first compound 0.8 µM): 1.04 | relative viability (NCI-H650; first compound 2.53 µM): 0.869 | relative viability (NCI-H650; first compound 8 µM): 0.724 | relative viability (NCI-H838; first compound 0.08 µM): 0.298 | relative viability (NCI-H838; first compound 0.8 µM): 0.272 | relative viability (NCI-H838; first compound 2.53 µM): 0.282 | relative viability (NCI-H838; first compound 8 µM): 0.295 | relative viability (SW 1573; first compound 0.08 µM): 0.18 | relative viability (SW 1573; first compound 0.8 µM): 0.25 | relative viability (SW 1573; first compound 2.53 µM): 0.167 | relative viability (SW 1573; first compound 8 µM): 0.187 | relative viability (LCLC-97TM1; first compound 0.08 µM): 0.186 | relative viability (LCLC-97TM1; first compound 0.8 µM): 0.239 | relative viability (LCLC-97TM1; first compound 2.53 µM): 0.265 | relative viability (LCLC-97TM1; first compound 8 µM): 0.218 | relative viability (LU99A; first compound 0.08 µM): 0.331 | relative viability (LU99A; first compound 0.8 µM): 0.261 | relative viability (LU99A; first compound 2.53 µM): 0.277 | relative viability (LU99A; first compound 8 µM): 0.264 | relative viability (NCI-H1650; first compound 0.08 µM): 0.396 | relative viability (NCI-H1650; first compound 0.8 µM): 0.452 | relative viability (NCI-H1650; first compound 2.53 µM): 0.399 | relative viability (NCI-H1650; first compound 8 µM): 0.462 | relative viability (LC-2-ad; first compound 0.08 µM): 0.469 | relative viability (LC-2-ad; first compound 0.8 µM): 0.421 | relative viability (LC-2-ad; first compound 2.53 µM): 0.52 | relative viability (LC-2-ad; first compound 8 µM): 0.441 | relative viability (NCI-H1915; first compound 0.08 µM): 0.463 | relative viability (NCI-H1915; first compound 0.8 µM): 0.448 | relative viability (NCI-H1915; first compound 2.53 µM): 0.458 | relative viability (NCI-H1915; first compound 8 µM): 0.49 | relative viability (NCI-H23; first compound 0.08 µM): 0.47 | relative viability (NCI-H23; first compound 0.8 µM): 0.462 | relative viability (NCI-H23; first compound 2.53 µM): 0.36 | relative viability (NCI-H23; first compound 8 µM): 0.34 | relative viability (RERF-LC-KJ; first compound 0.08 µM): 0.567 | relative viability (RERF-LC-KJ; first compound 0.8 µM): 0.532 | relative viability (RERF-LC-KJ; first compound 2.53 µM): 0.564 | relative viability (RERF-LC-KJ; first compound 8 µM): 0.368 | relative viability (NCI-H1355; first compound 0.08 µM): 0.608 | relative viability (NCI-H1355; first compound 0.8 µM): 0.704 | relative viability (NCI-H1355; first compound 2.53 µM): 0.546 | relative viability (NCI-H1355; first compound 8 µM): 0.499 | relative viability (NCI-H1993; first compound 0.08 µM): 0.523 | relative viability (NCI-H1993; first compound 0.8 µM): 0.593 | relative viability (NCI-H1993; first compound 2.53 µM): 0.594 | relative viability (NCI-H1993; first compound 8 µM): 0.548 | relative viability (NCI-H1793; first compound 0.08 µM): 0.399 | relative viability (NCI-H1793; first compound 0.8 µM): 0.44 | relative viability (NCI-H1793; first compound 2.53 µM): 0.4 | relative viability (NCI-H1793; first compound 8 µM): 0.327 | relative viability (BEN; first compound 0.08 µM): 0.518 | relative viability (BEN; first compound 0.8 µM): 0.591 | relative viability (BEN; first compound 2.53 µM): 0.542 | relative viability (BEN; first compound 8 µM): 0.512 | relative viability (NCI-H1666; first compound 0.08 µM): 0.615 | relative viability (NCI-H1666; first compound 0.8 µM): 0.68 | relative viability (NCI-H1666; first compound 2.53 µM): 0.639 | relative viability (NCI-H1666; first compound 8 µM): 0.615 | relative viability (NCI-H460; first compound 0.08 µM): 0.516 | relative viability (NCI-H460; first compound 0.8 µM): 0.493 | relative viability (NCI-H460; first compound 2.53 µM): 0.666 | relative viability (NCI-H460; first compound 8 µM): 0.883 | relative viability (A-427; first compound 0.08 µM): 0.229 | relative viability (A-427; first compound 0.8 µM): 0.196 | relative viability (A-427; first compound 2.53 µM): 0.188 | relative viability (A-427; first compound 8 µM): 0.243 | relative viability (NCI-H520; first compound 0.08 µM): 0.56 | relative viability (NCI-H520; first compound 0.8 µM): 0.459 | relative viability (NCI-H520; first compound 2.53 µM): 0.467 | relative viability (NCI-H520; first compound 8 µM): 0.376 | relative viability (NCI-H1648; first compound 0.08 µM): 0.472 | relative viability (NCI-H1648; first compound 0.8 µM): 0.627 | relative viability (NCI-H1648; first compound 2.53 µM): 0.366 | relative viability (NCI-H1648; first compound 8 µM): 0.582 | relative viability (NCI-H2228; first compound 0.08 µM): 0.269 | relative viability (NCI-H2228; first compound 0.8 µM): 0.247 | relative viability (NCI-H2228; first compound 2.53 µM): 0.309 | relative viability (NCI-H2228; first compound 8 µM): 0.238
